16 molecules from patent US20250243208A1, “BICYCLIC HETEROCYCLES AS MRGPRX2 ANTAGONISTS” (Incyte Corporation, priority 2024, published 2025) can be followed below.

In assay [1] the target is T1, MRGPRX2 (Homo sapiens, UniProt Q96LB1).
T1 sequence (Q96LB1 1-330): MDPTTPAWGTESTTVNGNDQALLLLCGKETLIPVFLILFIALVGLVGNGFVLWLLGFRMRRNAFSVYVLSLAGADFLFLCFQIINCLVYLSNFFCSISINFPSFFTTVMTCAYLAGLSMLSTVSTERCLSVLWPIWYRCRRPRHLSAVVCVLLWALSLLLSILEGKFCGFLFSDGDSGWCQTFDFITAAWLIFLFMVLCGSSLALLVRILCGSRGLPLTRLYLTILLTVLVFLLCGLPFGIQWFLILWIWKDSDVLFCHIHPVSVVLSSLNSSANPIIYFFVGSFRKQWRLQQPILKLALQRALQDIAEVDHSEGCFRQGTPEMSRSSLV
The assay is described as follows: MRGPRX2 IP1 HTRF assay. In kind it is cell-based. The arrangement: host or cells: CHO-K1. To be noted: CHO-K1 cells, agonist Cortistatin 14 1 μM, IP1 accumulation. An excerpt: Example B: MRGPRX2 IP1 HTRF Assay
This assay measures compound inhibition of myo-Inositol 1 phosphate (IP1) accumulation in CHO-K1 cells. Chinese hamster ovary (CHO-K1) cells stably expressing human MRGPRX2 were purchased from GenScript (Piscataway, NJ).
For the HTRF IP1 determination, an IP-One GqKit (Perkin Elmer Cisbio, Waltham, MA), which includes all reagents and buffers in this protocol, was used. The cells were maintained in culture medium (Ham's F-12K) containing 10% (v/v) FBS, and 200 μg/mL Zeocin. For the assay, the cells were harvested and resuspended in culture medium with 2% FBS and without Zeocin, then were passed through a 40 μm filter. Cells were added at 20000 cells in a 5 μL/well to a 384-well white small volume cell culture plate (Greiner VWR, Radnor, PA) which contained 50 nL/well of test compound serially diluted at a selected concentration range in DMSO. 5 μL/well of prepared 2× Stimulation Buffer2 was then added to plates and was incubated at 37° C. with 5% CO2 for 1 h. 5 μL/well of agonist Cortistatin 14 (Bio-TechneR&D Systems, Minneapolis, MN) in 1× Stimulation Buffer 2, for a 1 μM final concentration, was then added to plates and incubated at 37° C. with 5% CO2 for 1 h. 6 μL/well of 1:20 diluted Detection Reagent Mix (d2 and Cryptate) was added to the plates and incubated for 1 h in the dark. Plates were read on the PHERAstar microplate reader (BMG Labtech Cary, NC) to determine the HTRF ratio of the acceptor and donor emission signals. The IP1 concentrations were calculated from a standard curve following the IP-One GQ kit instructions. Wells with DMSO only and wells with high concentration of reference antagonist were used as controls for normalization. Compound IC50 curves were globally fitted with 3- or 4-parameter Hill equation in a Genedata Screener (Genedata Basel, Switzerland).

The target in assay [2] is T1, MRGPRX2. The assay can be described thus: MRGPRX2 β-Arrestin recruitment assay (PathHunter CHO-K1). The assay is classed as cell-based. Also on record: host or cells: PathHunter CHO-K1. Particulars: PathHunter CHO-K1 cells, agonist Cortistatin 14 0.25 μM. The text has this:
Example C: MRGPRX2 β-Arrestin Assay
This assay measures compound inhibition of β-Arrestin recruitment, which is part of the G protein-independent pathway that results from the ligand-activated GPCR phosphorylation by specific GPCR kinases. The PathHunter CHO-K1 MRPGRX2 B-Arrestin Cell line stably expressing ProLink tagged MRGPRX2 and Enzyme Acceptor Tagged B-Arrestin was purchased from Eurofins DiscoverX, (Fremont, CA).
The cells were maintained in culture medium from the Europhins DiscoverX Cell Culture Kit-107 which includes FBS, hygromycin B and G418. For the assay, the cells were harvested and were resuspended with Cell Plating Reagent 2 (Eurofins DiscoverX). Cells were added 10000 cells in 25 μL/well to a 384-well black cell culture plate (Greiner VWR, Radnor, PA) which contained 125 nL/well of compound at a selected serially diluted concentration range or DMSO. The plate was incubated at 37° C. with 5% CO2 for 1 h. 2 μL/well of agonist Cortistatin 14 was diluted in Protein Dilution Buffer, (Eurofins DiscoverX) for a final concentration of 0.25 μM, was added and the plate was incubated at 37° C. with 5% CO2 for 90 min. 14 μL/well of Detection Reagent Mix (PathHunter Detection Kit, Eurofins DiscoverX) was added to the plates and further incubated for 1 h in the dark. Plates were read on the PHERAstar microplate reader (BMG Labtech Cary, NC) measuring luminescence 0.1 to 1 s per well. Data was normalized using DMSO only wells and wells with high concentration of reference antagonist as controls. Compound IC50 curves were globally fitted with 3- or 4-parameter Hill equation in a Genedata Screener (Genedata Basel, Switzerland).

The target in assay [3] is T1, MRGPRX2. The assay can be described thus: potency comparison of separated isomers (assay not stated). Particulars: compared with the other separated diastereomer/enantiomer.

As to `CC(CNc1cc(C(F)F)nc2cc(C(F)(F)F)nn12)(c1ccccc1)C1CN(S(N)(=O)=O)C1` (racemic) [Example 7, 3-(1-((5-(Difluoromethyl)-2-(trifluoromethyl)pyrazolo[1,5-a]pyrimidin-7-yl)amino)-2-phenylpropan-2-yl)azetidine-1-sulfonamide], the IC50 at MRGPRX2 [1] and on MRGPRX2 [2] was 0.1 to 100 nM in each case. Turning to `CC(CNc1cc(C(F)F)nc2cc(C(F)(F)F)nn12)(c1ccccc1)C1CN(C(N)=O)C1` (racemic) [Example 8, 3-(1-((5-(Difluoromethyl)-2-(trifluoromethyl)pyrazolo[1,5-a]pyrimidin-7-yl)amino)-2-phenylpropan-2-yl)azetidine-1-carboxamide], the IC50 at MRGPRX2 [1] and at MRGPRX2 [2] was 0.1 to 100 nM each time. For the molecule `CC(CNc1cc(C(F)(F)F)nc2cc(C(F)(F)F)nn12)(c1ccccc1)C1CN(c2n[nH]c(N)n2)C1` (racemic) [Example 9, N-(2-(1-(5-Amino-1H-1,2,4-triazol-3-yl)azetidin-3-yl)-2-phenylpropyl)-2,5-bis(trifluoromethyl)pyrazolo[1,5-a]pyrimidin-7-amine], the IC50 on MRGPRX2 [1] and on MRGPRX2 [2] was 0.1 to 100 nM in each case. Consider `CC(CNc1cc(C(F)(F)F)nc2cc(C(F)(F)F)nn12)(c1ccccc1)C1CN(C(N)=O)C1` (racemic) [Example 10, 3-(1-((2,5-Bis(trifluoromethyl)pyrazolo[1,5-a]pyrimidin-7-yl)amino)-2-phenylpropan-2-yl)azetidine-1-carboxamide], for which the half-maximal inhibitory concentration (IC50) on MRGPRX2 [1] and at MRGPRX2 [2] was 0.1 to 100 nM each time. On to `CC(CNc1cc(C(F)(F)F)nc2cc(C(F)(F)F)nn12)(c1ccccc1)C1CNC1` (racemic) [Example 11, N-(2-(Azetidin-3-yl)-2-phenylpropyl)-2,5-bis(trifluoromethyl)pyrazolo[1,5-a]pyrimidin-7-amine], for which the IC50 on MRGPRX2 [1] and on MRGPRX2 [2] was 0.1 to 100 nM in each case.

In the case of `C[C@](CNc1cc(C(F)(F)F)nc2cc(C(F)(F)F)nn12)(c1ccc(F)cc1)C1CN(C(N)=O)C1` (single isomer, unassigned) [Example 5, 3-(1-((2,5-Bis(trifluoromethyl)pyrazolo[1,5-a]pyrimidin-7-yl)amino)-2-(4-fluorophenyl)propan-2-yl)azetidine-1-carboxamide], on MRGPRX2 [1], the half-inhibitory concentration (IC50) lay in the range of 0.1 to 100 nM. Turning to `C[C@](CNc1cc(C(F)(F)F)nc2cc(C(F)(F)F)nn12)(c1ccc(F)cc1)C1CN(C(N)=O)C1` (single isomer, unassigned) [Example 6, 3-(1-((2,5-Bis(trifluoromethyl)pyrazolo[1,5-a]pyrimidin-7-yl)amino)-2-(4-fluorophenyl)propan-2-yl)azetidine-1-carboxamide], the half-inhibitory concentration (IC50) at MRGPRX2 [1] and on MRGPRX2 [2] was 0.1 to 100 nM each time.

Regarding `NC(=O)N1CCC(C(CO)(CNc2cc(C(F)(F)F)nc3cc(C(F)(F)F)nn23)c2ccc(F)cc2)C1` (single isomer, unassigned) [Example 18, 3-(1-((2,5-Bis(trifluoromethyl)pyrazolo[1,5-a]pyrimidin-7-yl)amino)-2-(4-fluorophenyl)-3-hydroxypropan-2-yl)pyrrolidine-1-carboxamide], the half-maximal inhibitory concentration (IC50) at MRGPRX2 [1] and on MRGPRX2 [2] was 0.1 to 100 nM each time.

In the case of `NC(=O)N1CCC(C(CNc2cc(C(F)(F)F)nc3cc(C(F)(F)F)nn23)c2ccc(F)cc2)C1` (single isomer, unassigned) [Example 20, 3-(2-((2,5-Bis(trifluoromethyl)pyrazolo[1,5-a]pyrimidin-7-yl)amino)-1-(4-fluorophenyl)ethyl)pyrrolidine-1-carboxamide], the “relative potency of the separated isomer” value at MRGPRX2 [3] is reported as “more potent”. Further, the IC50 on MRGPRX2 [2] lay within 0.1 to 100 nM. As to `O=C1NC2(CCO1)CN(C(CNc1cc(C(F)(F)F)nc3cc(C(F)(F)F)nn13)c1ccc(F)cc1)C2` (single isomer, unassigned) [Example 25, 2-(2-((2,5-Bis(trifluoromethyl)pyrazolo[1,5-a]pyrimidin-7-yl)amino)-1-(4-fluorophenyl)ethyl)-7-oxa-2,5-diazaspiro[3.5]nonan-6-one], the “relative potency of the separated isomer” value on MRGPRX2 [3] is recorded as “more potent”. For the same molecule, the half-inhibitory concentration (IC50) at MRGPRX2 [2] lay within 0.1 to 100 nM. On the same counts, the results for `[2H]C([2H])([2H])NC(=O)C1CN(C(CNc2cc(C(F)(F)F)nc3cc(C(F)(F)F)nn23)c2ccc(F)cc2)C1` (single isomer, unassigned) [Example 26, 1-(2-((2,5-Bis(trifluoromethyl)pyrazolo[1,5-a]pyrimidin-7-yl)amino)-1-(4-fluorophenyl)ethyl)-N-(methyl-d3)azetidine-3-carboxamide] are “more potent” and 0.1 to 100 nM. Molecule `NC(=O)N1CC2(C1)CN(C(CNc1cc(C(F)(F)F)nc3cc(C(F)(F)F)nn13)c1ccc(F)cc1)C2` (single isomer, unassigned) [Example 29, 6-(2-((2,5-Bis(trifluoromethyl)pyrazolo[1,5-a]pyrimidin-7-yl)amino)-1-(4-fluorophenyl)ethyl)-2,6-diazaspiro[3.3]heptane-2-carboxamide] gave a half-maximal inhibitory concentration (IC50) at MRGPRX2 [2] of 0.1 to 100 nM. With `CC1(O)CN(C(CNc2cc(C(F)(F)F)nc3cc(C(F)(F)F)nn23)c2ccc(F)cc2)C1` (single isomer, unassigned) [Example 35, 1-(2-((2,5-Bis(trifluoromethyl)pyrazolo[1,5-a]pyrimidin-7-yl)amino)-1-(4-fluorophenyl)ethyl)-3-methylazetidin-3-ol], the “relative potency of the separated isomer” value on MRGPRX2 [3] is “active”. Moreover, the IC50 at MRGPRX2 [2] lay in the range of 0.1 to 100 nM. On the same counts, the results for `O=C1CC2(CN1)CN(C(CNc1cc(C(F)(F)F)nc3cc(C(F)(F)F)nn13)c1ccc(F)cc1)C2` (single isomer, unassigned) [Example 36, 2-(2-((2,5-Bis(trifluoromethyl)pyrazolo[1,5-a]pyrimidin-7-yl)amino)-1-(4-fluorophenyl)ethyl)-2,6-diazaspiro[3.4]octan-7-one] are “active” and 0.1 to 100 nM. The like results for `O=C1NCC2(CN(C(CNc3cc(C(F)(F)F)nc4cc(C(F)(F)F)nn34)c3ccc(F)cc3)C2)N1` (single isomer, unassigned) [Example 37, 2-(2-((2,5-Bis(trifluoromethyl)pyrazolo[1,5-a]pyrimidin-7-yl)amino)-1-(4-fluorophenyl)ethyl)-2,5,7-triazaspiro[3.4]octan-6-one] were, in that order, “active” and 0.1 to 100 nM.

As to `OC1CC2CC1CN2C(CNc1cc(C(F)(F)F)nc2cc(C(F)(F)F)nn12)c1ccc(F)cc1` (centres unmarked) [Example 22, 2-(2-((2,5-Bis(trifluoromethyl)pyrazolo[1,5-a]pyrimidin-7-yl)amino)-1-(4-fluorophenyl)ethyl)-2-azabicyclo[2.2.1]heptan-5-ol], the IC50 on MRGPRX2 [2] fell in the range of 0.1 to 100 nM.
